Source: patent US11912693B2, “Compounds for modulating S1P1 activity and methods of using the same” (TREVENA, INC., priority 2017, dated 2024)

Assays:
[1] = target: T1, human sphingosine-1-phosphate receptor 1 (S1P1) (Homo sapiens (Human), UniProt P21453); experiment: Inhibition of cAMP production (HTRF cAMP HiRange), S1P1 CHO-K1 cells; format: cell-based; conditions: for Emax: CHO-K1, efficacy (SPAN) normalized to fingolimod, read-out: hS1P1 cAMP SPAN; for hS1P1 cAMP pEC50: inhibition of cAMP production, S1P1 CHO-K1 cells
Procedure, shortened: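 CHO-K1 cells stably co-expressing human S1P1 (C-terminal Prolink tag) and EA-β-arrestin2 were grown in AssayComplete Media 6 at 37° C. and 5% CO2, plated, and incubated overnight. Agonist-driven inhibition of intracellular cAMP was read by TR-FRET with the HTRF cAMP HiRange kit on a PheraStar reader. Potency is pEC50, and efficacy (SPAN) is normalized to fingolimod.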
Target sequence in this assay (P21453 whole entry, looked up): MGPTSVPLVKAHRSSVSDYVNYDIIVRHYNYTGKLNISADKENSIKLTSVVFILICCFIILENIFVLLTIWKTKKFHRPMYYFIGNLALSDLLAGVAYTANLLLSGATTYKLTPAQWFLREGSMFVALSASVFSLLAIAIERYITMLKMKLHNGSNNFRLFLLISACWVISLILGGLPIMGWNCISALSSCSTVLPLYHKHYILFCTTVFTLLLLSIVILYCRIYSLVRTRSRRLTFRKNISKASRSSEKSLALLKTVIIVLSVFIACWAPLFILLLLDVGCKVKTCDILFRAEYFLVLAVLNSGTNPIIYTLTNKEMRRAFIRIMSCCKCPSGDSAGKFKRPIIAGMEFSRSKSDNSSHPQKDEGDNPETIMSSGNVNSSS

[2] = target: T1, human sphingosine-1-phosphate receptor 1 (S1P1); experiment: β-Arrestin2 recruitment assay (PathHunter), S1P1 CHO-K1 cells; format: cell-based; conditions: for Emax: CHO-K1, efficacy (SPAN) normalized to fingolimod, read-out: hS1P1 B-arrestin2 SPAN; for hS1P1 B-arrestin2 pEC50: β-arrestin2 recruitment, S1P1 CHO-K1 cells
Procedure, shortened: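 Enzyme-fragment complementation read-out: agonist-driven β-arrestin2 binding to ProLink-tagged human S1P1 in stable CHO-K1 cells restores β-galactosidase, measured 1 h at room temperature after a 60 min 37° C. compound incubation. Potency as pEC50, efficacy relative to fingolimod (SPAN).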
Target sequence in this assay (P21453 whole entry, looked up): as above
Target sequence in this assay (P32121 whole entry partner, looked up): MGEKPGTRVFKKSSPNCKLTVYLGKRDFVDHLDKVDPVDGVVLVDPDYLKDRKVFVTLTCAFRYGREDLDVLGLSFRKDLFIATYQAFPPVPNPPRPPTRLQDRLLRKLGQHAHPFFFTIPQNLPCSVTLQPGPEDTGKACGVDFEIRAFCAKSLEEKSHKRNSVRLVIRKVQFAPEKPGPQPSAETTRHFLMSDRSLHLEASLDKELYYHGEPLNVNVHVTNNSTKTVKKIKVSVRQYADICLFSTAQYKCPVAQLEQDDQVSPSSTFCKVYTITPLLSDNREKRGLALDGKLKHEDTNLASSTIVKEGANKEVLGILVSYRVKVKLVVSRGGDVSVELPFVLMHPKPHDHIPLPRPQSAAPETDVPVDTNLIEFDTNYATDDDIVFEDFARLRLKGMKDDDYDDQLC

[3] = tested on: paclitaxel induced peripheral neuropathy; experiment: Reversal of allodynia induced by paclitaxel in mice (s.c. or p.o., von Frey frequency method); format: in vivo, c57bl/6 mice; conditions: Mus musculus; for inhibition in vivo at 1 mg/kg: sc, 0.5 h, 1 mg/kg s.c., tested 30 min after dosing, read-out: Screen @ 1 mg/kg sc (% MPE); for inhibition in vivo at 3 mg/kg: po, 1 h, 3 mg/kg p.o., tested 60 min after dosing, read-out: Screen @ 3 mg/kg po (% MPE)
Procedure, shortened: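 Neuropathy was induced in mice by paclitaxel (6 mg/kg i.p., days 1, 3, 5, 7) or oxaliplatin (4 mg/kg i.p., days 1-5), with re-testing about 14 days later. Compounds were given s.c. (tested at 30 min) or p.o. (tested at 60 min; paclitaxel only). A 0.4 g von Frey filament was applied ten times per paw, and % non-response was converted to % MPE.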

[4] = tested on: peripheral blood lymphocytes; experiment: Peripheral blood lymphocytes (lymphopenia) in c57bl/6 mice, acute and chronic studies; format: in vivo; conditions: for Lymphopenia: Effect and Doses, mg/kg, sc: peripheral blood lymphocytes vs vehicle
Method: Compounds were tested for changes in peripheral blood lymphocytes in c57bl/6 mice. In acute studies, animals (n=5/group) were dosed subcutaneously with test compound at a dose of 3 mg/kg. Animals were sacrificed at specific time points and 500 μl of whole blood was collected in EDTA (K2) Eppendorf tubes. Blood was stored on ice and shipped immediately overnight delivery to Charles River Laboratories for analysis. CRL ran samples through their WBC/differential panel on an Advia 120 instrument. We received peripheral lymphocyte counts (10^3 cells/μl) for each blood sample. Treatment group means were compared to a vehicle treatment group for statistical significance. In chronic studies, animals (n=6-8/group) were dosed subcutaneously with test compound either in a dose response paradigm (highest dose of 3 mg/kg) or in a screening paradigm at 6 mg/kg for seven days. On the seventh day, animals were sacrificed 45 minutes after the final dose. Whole blood was collected and analyzed as described for acute studies. […]

hERG channel = hERG channel (Homo sapiens (Human), UniProt Q12809); experiment: Automated Qpatch patch-clamp hERG assay
[5] = target: human sphingosine-1-phosphate receptor 2 (S1P2) (Homo sapiens (Human), UniProt O95136); experiment: Inositol monophosphate production (IP-one TB kit), S1P2 CHO-K1 cells; format: cell-based; conditions: inositol monophosphate accumulation, hS1P2
Method: (§1) Stable clonal Chinese hamster ovary K1 (CHO-K1) cells co-expressing EA-β-arrestin2 and the human sphingosine-1-phosphate receptor 2 (NM_004230.3, S1P2), human sphingosine-1-phosphate receptor 3 (NM_005226, S1P3) and sphingosine-1-phosphate receptor 5 (NM_001166215.1, S1P5) with a C-terminal Prolink™ tag were purchased from DiscoverX corporation (S1P2: Cat #93-0256C2, S1P3: Cat #93-0217C2, S1P5: Cat #93-0583C2).
(§2) Cell lines were cultured in AssayComplete™ Media 6 (DiscoverX Corporation, Cat #: 920018GF2) at 37° C. and 5% CO2 in a humidified CO2 and temperature-controlled incubator. To begin assay plating, cells were washed with dulbecco's phosphate buffered saline (CellGro, Cat #: 21-031-CV) and lifted from the culturing flask by incubation (37° C., 5 min) with CellStripper (Cellgro, Cat #: 25-056-CI). […] Plated cells were incubated overnight at 37° C. and 5% CO2 in a humidified CO2 and temperature-controlled incubator.
S1P2 Agonist-promoted G-protein responses were determined by measuring changes in intracellular inositol monophosphate using the IP-one TB kit (CisBio, Cat #: 62IPAPEJ) based on time-resolved fluorescence resonance energy transfer (TR-FRET) technology. AssayComplete™ Cell Plating 2 Reagent was removed and replaced with 1× IP-one stimulation buffer (as per manufacturer's instructions) along with test or control compounds at the desired concentrations. Following a 60-minute incubation at 37° C. and 5% CO2 in a humidified CO2 and temperature-controlled incubator, the components of the IP-one TB kit were added as per the manufacturer's instructions. After an hour incubation at room temperature, plates were analyzed by a BMG PheraStar microplate reader.
(§3) The tables below include the efficacy of the compound as compared to a positive control, referred to as “SPAN”. These values are normalized to fingolimod, a known agonist of the sphingosine-1-phosphate 3 and 5 receptor or CYM5520, a known agonist of the sphingosine-1-phosphate 2 receptor. The tables also include potency values (pEC50) for modulating discrete receptor-mediated activities (inhibition of cAMP production or inositol monophosphate accumulation).

[6] = target: human sphingosine-1-phosphate receptor 3 (S1P3) (Homo sapiens (Human), UniProt Q99500); experiment: Inhibition of cAMP production (HTRF), S1P3 CHO-K1 cells; format: cell-based; conditions: inhibition of cAMP production, hS1P3
Method: as §1, §2
(§4) S1P3 and S1P5 Agonist-promoted G-protein responses were determined by measuring changes in intracellular cAMP using the HTRF® cAMP HiRange kit (CisBio, Cat #: 62AM6PEJ) based on time-resolved fluorescence resonance energy transfer (TR-FRET) technology. […] Following a 30-minute room temperature incubation the components of the cAMP HiRange kit were added as per the manufacturer's instructions. After an hour incubation at room temperature, plates were analyzed by a BMG PheraStar microplate reader.
as §3

[7] = target: sphingosine-1-phosphate receptor 5 (S1P5) (Homo sapiens (Human), UniProt Q9H228); experiment: Inhibition of cAMP production (HTRF), S1P5 CHO-K1 cells; format: cell-based; conditions: inhibition of cAMP production, hS1P5
Method: as §1, §2, §4, §3

Chain of hERG channel (Q12809 whole entry): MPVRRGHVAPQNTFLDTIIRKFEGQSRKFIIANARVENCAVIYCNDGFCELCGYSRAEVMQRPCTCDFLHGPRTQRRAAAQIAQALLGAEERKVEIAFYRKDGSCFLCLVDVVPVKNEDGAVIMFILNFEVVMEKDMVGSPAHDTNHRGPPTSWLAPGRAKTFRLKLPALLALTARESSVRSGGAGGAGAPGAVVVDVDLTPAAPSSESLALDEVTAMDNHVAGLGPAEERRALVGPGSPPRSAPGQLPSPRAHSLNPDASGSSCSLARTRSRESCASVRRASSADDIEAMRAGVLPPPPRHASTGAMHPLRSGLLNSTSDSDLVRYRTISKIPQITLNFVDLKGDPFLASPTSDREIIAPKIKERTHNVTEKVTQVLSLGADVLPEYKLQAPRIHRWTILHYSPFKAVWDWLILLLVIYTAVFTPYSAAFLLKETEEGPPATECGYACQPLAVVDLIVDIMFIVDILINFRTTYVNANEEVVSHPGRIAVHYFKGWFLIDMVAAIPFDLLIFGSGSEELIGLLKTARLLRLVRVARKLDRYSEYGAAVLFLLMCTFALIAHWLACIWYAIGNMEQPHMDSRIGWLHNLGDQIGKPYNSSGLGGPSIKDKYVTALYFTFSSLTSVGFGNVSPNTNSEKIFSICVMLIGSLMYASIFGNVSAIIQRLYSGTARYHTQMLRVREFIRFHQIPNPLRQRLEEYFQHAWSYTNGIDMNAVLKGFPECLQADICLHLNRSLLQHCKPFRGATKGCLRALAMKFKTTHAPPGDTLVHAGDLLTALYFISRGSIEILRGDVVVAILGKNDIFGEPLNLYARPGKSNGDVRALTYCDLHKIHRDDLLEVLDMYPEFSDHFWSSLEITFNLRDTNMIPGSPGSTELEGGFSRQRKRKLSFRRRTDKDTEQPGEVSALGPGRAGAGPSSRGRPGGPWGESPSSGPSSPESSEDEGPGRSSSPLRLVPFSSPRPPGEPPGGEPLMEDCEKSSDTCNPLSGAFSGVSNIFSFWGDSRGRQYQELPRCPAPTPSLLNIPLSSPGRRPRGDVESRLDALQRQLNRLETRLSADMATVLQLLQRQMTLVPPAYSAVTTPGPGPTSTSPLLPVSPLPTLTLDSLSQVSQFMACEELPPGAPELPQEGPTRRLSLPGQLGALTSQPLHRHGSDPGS
Chain of human sphingosine-1-phosphate receptor 2 (S1P2) (O95136 whole entry): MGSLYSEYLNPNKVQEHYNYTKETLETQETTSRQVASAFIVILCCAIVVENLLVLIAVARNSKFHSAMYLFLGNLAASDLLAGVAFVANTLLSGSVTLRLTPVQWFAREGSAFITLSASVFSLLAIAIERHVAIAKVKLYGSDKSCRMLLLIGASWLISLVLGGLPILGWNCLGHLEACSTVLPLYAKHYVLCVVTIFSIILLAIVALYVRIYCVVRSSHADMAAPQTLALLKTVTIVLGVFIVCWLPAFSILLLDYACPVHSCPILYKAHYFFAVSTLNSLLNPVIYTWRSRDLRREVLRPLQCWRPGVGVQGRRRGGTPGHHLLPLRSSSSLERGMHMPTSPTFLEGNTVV
Chain of human sphingosine-1-phosphate receptor 3 (S1P3) (Q99500 whole entry): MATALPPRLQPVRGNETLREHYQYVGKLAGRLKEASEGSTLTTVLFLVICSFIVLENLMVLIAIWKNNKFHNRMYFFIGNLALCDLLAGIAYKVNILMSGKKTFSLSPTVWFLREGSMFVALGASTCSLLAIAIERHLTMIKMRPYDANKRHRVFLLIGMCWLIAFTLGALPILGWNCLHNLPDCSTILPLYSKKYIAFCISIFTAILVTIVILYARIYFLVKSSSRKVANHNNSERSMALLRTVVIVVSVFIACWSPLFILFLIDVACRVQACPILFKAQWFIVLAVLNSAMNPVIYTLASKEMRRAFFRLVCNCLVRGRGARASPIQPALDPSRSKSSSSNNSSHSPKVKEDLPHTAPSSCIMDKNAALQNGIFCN
Chain of sphingosine-1-phosphate receptor 5 (S1P5) (Q9H228 whole entry): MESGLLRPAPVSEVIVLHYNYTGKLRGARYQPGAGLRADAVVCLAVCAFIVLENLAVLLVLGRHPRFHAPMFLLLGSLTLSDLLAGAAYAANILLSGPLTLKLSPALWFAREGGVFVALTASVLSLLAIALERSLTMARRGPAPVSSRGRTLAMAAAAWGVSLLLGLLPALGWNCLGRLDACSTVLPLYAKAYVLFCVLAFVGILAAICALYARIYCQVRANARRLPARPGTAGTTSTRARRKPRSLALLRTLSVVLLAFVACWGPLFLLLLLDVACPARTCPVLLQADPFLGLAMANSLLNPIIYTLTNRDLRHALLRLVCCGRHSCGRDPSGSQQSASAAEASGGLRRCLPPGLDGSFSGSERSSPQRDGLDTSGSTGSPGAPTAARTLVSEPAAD

| SMILES | hS1P1 cAMP pEC50 [1] | hS1P1 B-arrestin2 pEC50 [2] | Lymphopenia: Effect and Doses, mg/kg, sc ([4]; 6 mg/kg sc, 7 days) | inhibition in vivo at 3 mg/kg [3] [%] | other results |
| --- | --- | --- | --- | --- | --- |
| Cc1ccccc1-c1noc(-c2ccc3c(c2)nnn3CC(C)C)n1 [Compound 96, 5-[3-(2-methylphenyl)-1,2,4-oxadiazol-5-yl]-1-(2-methylpropyl)-1H-1,2,3-benzotriazole] | >6.5 | >5 | no change: 6 mg/kg, 7 days | – | Emax [1]: > 75%; Emax [2]: > 75%; inhibition in vivo at 1 mg/kg [3]: > 50% |
| Cc1ccccc1-c1noc(-c2ccc3c(c2)nnn3C(C)(C)C)n1 [Compound 59, 1-tert-butyl-5-[3-(2-methylphenyl)-1,2,4-oxadiazol-5-yl]-1H-1,2,3-benzotriazole] | >6.5 | >5 | no change: 6 mg/kg, 7 days | – | – |
| CC(C)Nc1ccc(-c2ncc(-c3ccnc(O)c3)cn2)cc1C#N [Compound 743, 5-(5-(2-hydroxypyridin-4-yl)pyrimidin-2-yl)-2-(isopropylamino) benzonitrile] | – | – | – | – | IC50 (hERG channel): > 10 µM |
| COc1cc(NC(C)=O)ccc1-c1noc(-c2ccc(NC(C)C)c(C#N)c2)n1 [Compound 731, N-[4-(5-{3-cyano-4-[(propan-2-yl)amino]phenyl}-1,2,4-oxadiazol-3-yl)-3-methoxyphenyl]acetamide] | – | – | – | > 50 | Lymphopenia: Effect and Doses, mg/kg, sc (change in peripheral blood lymphocytes) ([4]; 6 mg/kg sc, 7 days, significance vs vehicle given): −78% stat sig: 6 mg/kg, 7 days |
| COc1cccc(-c2noc(-c3ccc4c(c3)nnn4C(C)C)n2)n1 [Compound 19, 5-[3-(6-methoxypyridin-2-yl)-1,2,4-oxadiazol-5-yl]-1-(propan-2-yl)-1H-1,2,3-benzotriazole] | <6.5 | >5 | no change: 6 mg/kg, 7 days | – | – |
| CC(C)n1nnc2cc(-c3nc(-c4cccc5c4OCO5)no3)ccc21 [Compound 32, 3-(benzo[d][1,3]dioxol-4-yl)-5-(1-isopropyl-1H-benzo[d][1,2,3]triazol-5-yl)-1,2,4-oxadiazole] | >6.5 | >5 | no change: 6 mg/kg, 7 days | – | hS1P2 IP-one pEC50 [5]: <5.0; hS1P3 cAMP pEC50 [6]: <5.0; hS1P5 cAMP pEC50 [7]: <5.0 |
| N#Cc1cc(-c2nc(-c3ccc4oc(=O)[nH]c4c3)no2)ccc1NCC1CC1 [Compound 423, 2-((cyclopropylmethyl)amino)-5-(3-(2-oxo-2,3-dihydrobenzo[d]oxazol-5-yl)-1,2,4-oxadiazol-5-yl)benzonitrile] | >6.5 | >5 | no change: 6 mg/kg, 7 days | > 50 | hS1P2 IP-one pEC50 [5]: >5.0; hS1P3 cAMP pEC50 [6]: >5.0 |
| CC(C)Nc1ccc(-c2nnc(-c3ccc4[nH]cnc4c3)o2)cc1C#N [Compound 356, 5-[5-(1H-1,3-benzodiazol-5-yl)-1,3,4-oxadiazol-2-yl]-2-[(propan-2-yl)amino]benzonitrile] | >6.5 | >5 | no change: 6 mg/kg, 7 days | > 50 | Emax [1]: > 75%; Emax [2]: > 75% |
| CC(C)Oc1ccc(-c2ncc(-c3ccnc(O)c3)cn2)cc1C#N [Compound 744, 5-(5-(2-hydroxypyridin-4-yl)pyrimidin-2-yl)-2-isopropoxybenzonitrile] | – | – | – | – | IC50 (hERG channel): > 10 µM |
| CN1C(=O)CCc2cc(-c3nc(-c4cccnc4)no3)ccc21 [Compound 384, 1-methyl-6-[3-(pyridin-3-yl)-1,2,4-oxadiazol-5-yl]-1,2,3,4-tetrahydroquinolin-2-one] | <6.5 | <5 | – | – | Lymphopenia: Effect and Doses, mg/kg, sc ([4]; acute, 3 mg/kg sc, 45 min and 2 hr): no change: 3 mg/kg; 45 min and 2 hr |
| CC(C)Oc1ccc(-c2ncc(-c3ccccn3)cn2)cc1C#N [Compound 742, 2-isopropoxy-5-(5-(pyridin-2-yl)pyrimidin-2-yl)benzonitrile] | – | – | – | – | IC50 (hERG channel): > 10 µM |
| CC(F)(F)CNc1ccc(-c2nnc(-c3ccc4[nH]ncc4c3)o2)cc1C#N [Compound 355, 2-[(2,2-difluoropropyl)amino]-5-[5-(1H-indazol-5-yl)-1,3,4-oxadiazol-2-yl]benzonitrile] | >6.5 | >5 | no change: 6 mg/kg, 7 days | > 50 | – |
| Cc1cnccc1-c1nc(-c2ccc3c(c2)nnn3C(C)C)no1 [Compound 8, 3-(1-isopropyl-1H-benzo[d][1,2,3]triazol-5-yl)-5-(3-methylpyridin-4-yl)-1,2,4-oxadiazole] | <6.5 | <5 | no change: 6 mg/kg, 7 days | – | Emax [1]: < 75%; Emax [2]: < 75%; inhibition in vivo at 1 mg/kg [3]: < 50% |
| CC(C)Oc1ccc(-c2ncc(-c3cccnc3)cn2)cc1C#N [Compound 738, 2-isopropoxy-5-(5-(pyridin-3-yl)pyrimidin-2-yl)benzonitrile] | – | – | – | – | IC50 (hERG channel): > 10 µM |
| Cc1cnc(-c2nc(-c3ccc4c(c3)nnn4C(C)C)no2)cn1 [Compound 234, 3-(1-isopropyl-1H-benzo[d][1,2,3]triazol-5-yl)-5-(5-methylpyrazin-2-yl)-1,2,4-oxadiazole] | <6.5 | <5 | no change: 6 mg/kg, 7 days | – | – |
| CCC1(CC)CC(=O)c2cc(-c3nc(-c4ccc(NC(C)=O)cc4OC)no3)ccc2O1 [Compound 531, N-{4-[5-(2,2-diethyl-4-oxo-3,4-dihydro-2H-1-benzopyran-6-yl)-1,2,4-oxadiazol-3-yl]-3-methoxyphenyl}acetamide] | >6.5 | >5 | no change: 6 mg/kg, 7 days | > 50 | – |
